Results reported in patent US8853228B2, “Heterocyclic analogs of propargyl-linked inhibitors of dihydrofolate reductase” (University of Connecticut, priority 2011, dated 2014).
≈ marks a conversion by molar mass, not a printed value. Where two headings read alike, the source gives them in different places.

Columns and labels:
[1] = target: ChDHFR-TS (Cryptosporidium hominis, UniProt Q27552); assay: ChDHFR enzyme inhibition assay; format: biochemical
Description: (§1) Enzyme and inhibitor were allowed to incubate for 5 min before adding dihydrofolate to initiate the reaction. Enzyme assays were performed at least four times. IC50 values and their standard deviations were calculated in the presence of varying concentrations of inhibitor near the IC50 concentration.
Compounds were evaluated in spectrophotometric enzyme assays using ChDHFR-TS and hDHFR. Inhibition constants (IC50) were measured (see Table 4). […] The compound abbreviations in Table 4 refer to the following compounds: […]

[2] = target: CgDHFR (Candida glabrata (strain ATCC 2001 / BCRC 20586 / JCM 3761 / NBRC 0622 / NRRL Y-65 / CBS 138) (Yeast) (Nakaseomyces glabratus), UniProt Q6FPH0); assay: biochemical; conditions: for Selectivity: Table 7, hDHFR vs CgDHFR
Text: CgDHFR: The gene coding CgDHFR was amplified by PCR from C. glabrata genomic DNA obtained from ATCC. The gene was inserted in a pET41 vector that includes a C-terminal histidine tag for nickel affinity chromatography. E. coli cells were transformed and the resulting plasmid was verified by sequencing. The protein was expressed in E. coli BL21(DE3) cells with isopropyl β-D-thiogalactoside induction. Following growth, the cells were lysed with BugBuster (Novagen) and centrifuged; the supernatant was loaded on a Ni-NTA column. The column was washed with 20 mM Tris (pH 8.0)/0.4 M NaCl and the protein was eluted using a gradient of 20 mM Tris (pH 8.0), 0.3 M NaCl, 20% glycerol, 0.1 mM EDTA, 2 mM DTT, 250 mM imidazole. Fractions containing CgDHFR were identified by SDS-PAGE, combined and desalted using a PD-10 column with a buffer containing 20 mM Tris pH 8.0, 20% glycerol, 0.1 mM EDTA and 2 mM DTT. The protein was concentrated to 13 mg/mL.
as §1

[3] = test system: C. glabrata; assay: Antifungal assay (MIC, Alamar Blue); format: cell-based, Candida glabrata; conditions: for MIC (Cg): YM media
Description: Antifungal assays were performed using C. glabrata as a suspension in 50% glycerol at −78° C. For susceptibility testing, a streak of stock culture was made on SDA agar and grown at 30° C. for 48 h. One pure colony of the test organism was recovered from the plate, suspended in appropriate media and grown in a 5 mL shake flask culture. A sample of the shake flask culture was diluted to 1×10^5 cells/mL in media and added to 96-well test plates (100 μL per well) containing test compounds dispensed in DMSO (1 μL). Amphotericin and ketoconazole were used as controls. After an incubation period determined from the strain specific doubling time, Alamar Blue (10 μL) was added, allowed to incubate; each well was scored for dye reduction.
Several representative compounds were also evaluated in thymidine-depleted media. It has been shown that high levels of thymidine interfere with accurate susceptibility testing of antifolates. To compensate for this, antifolates are frequently evaluated in a controlled minimal media with a low thymidine concentration. […] In addition, the compounds were also evaluated for mammalian cell toxicity using MCF-10 and HepG2 cell lines. Cellular selectivity is reported as the IC50 value for the MCF-10 human cell line divided by the MIC value (μg/mL) (Table 8).

[4] = test system: S. aureus 13709 (MRSA); assay: Antibacterial MIC, broth microdilution with Alamar Blue; format: cell-based, Staphylococcus aureus
Description: (§2) For susceptibility testing, 10 μL of glycerol stock was suspended in a 10 mL shake flask culture of chemically defined Isosensitest broth (Oxoid) supplemented with 2% w/v glucose. A sample of the shake flask culture was diluted to 1×10^6 cells/mL in media and added to 96-well test plates (100 μL per well) containing test compounds dispensed in DMSO (2 μL). After an incubation period (30° C.) determined from the strain specific doubling time, a 0.03% w/v aqueous solution of resazurin (10 μL) was added and the plates were allowed to incubate; each well was then scored for dye reduction.

[5] = test system: Streptococcus pyogenes; assay: as above; format: cell-based
Description: as §2

[6] = test system: MCF-10 cells; assay: Mammalian cell toxicity, MCF-10; format: cell-based, human; conditions: cytotoxicity, Table 6
Description: Adherent cell lines were maintained in Eagle's Minimal Essential Media (Sigma-Aldrich, St. Louis, Mo., USA) with 2 mM glutamine and Earle's Balanced Salt Solution (HyClone, Logan, Utah, USA) adjusted to contain 1.5 g/L sodium bicarbonate, 0.1 mM non-essential amino acids, 1 mM sodium pyruvate and 10% fetal calf serum. Fetal calf serum used in these assays was lot matched throughout. […] Toxicity assays were conducted between passages 10-20. Target compound toxicity was measured by incubating the test compound with the cells for 4 h, washing the cells and finally treating the cells with Alamar Blue. After 12-24 h, the fluorescence of the reduced dye was measured. Fluorescence intensity as a function of test compound concentration was fit to the Fermi equation, using non-linear least squares regression analysis, to estimate IC50 values.

[7] = target: hDHFR (Homo sapiens (Human), UniProt P00374); assay: hDHFR enzyme inhibition assay; format: biochemical; conditions: read-out: IC50 (hDHFR)
Description: hDHFR: The gene for hDHFR was amplified using PCR from cDNA obtained from ATCC. The gene was inserted in a pET41 vector with a C-terminal histidine tag for affinity chromatography. The resulting construct was verified by sequencing. The hDHFR protein was expressed in E. coli and purified using a nickel affinity column.
as §1
Enzyme inhibition assays were performed by monitoring the rate of NADPH oxidation by the DHFR enzyme at an absorbance of 340 nm. Assays were performed in the presence of saturating concentrations of NADPH and initiated with dihydrofolate. All assays were completed at 25° C. in a buffer containing 20 mM TES pH 7.0, 50 mM KCl, 10 mM 2-mercaptoethanol, 0.5 mM EDTA and 1 mg/mL BSA. Inhibition was measured at least three times with inhibitor concentrations near the IC50 value and the average IC50 value is reported with a standard deviation.

[8] = Table 4, read-out: IC50 (ChDHFR)
[9] = Table 7, read-out: IC50 (CgDHFR)
[10] = C. glabrata, Inact: not active at 2 mM (~600 μg/mL)

ChDHFR-TS, sequence (Q27552 1-521): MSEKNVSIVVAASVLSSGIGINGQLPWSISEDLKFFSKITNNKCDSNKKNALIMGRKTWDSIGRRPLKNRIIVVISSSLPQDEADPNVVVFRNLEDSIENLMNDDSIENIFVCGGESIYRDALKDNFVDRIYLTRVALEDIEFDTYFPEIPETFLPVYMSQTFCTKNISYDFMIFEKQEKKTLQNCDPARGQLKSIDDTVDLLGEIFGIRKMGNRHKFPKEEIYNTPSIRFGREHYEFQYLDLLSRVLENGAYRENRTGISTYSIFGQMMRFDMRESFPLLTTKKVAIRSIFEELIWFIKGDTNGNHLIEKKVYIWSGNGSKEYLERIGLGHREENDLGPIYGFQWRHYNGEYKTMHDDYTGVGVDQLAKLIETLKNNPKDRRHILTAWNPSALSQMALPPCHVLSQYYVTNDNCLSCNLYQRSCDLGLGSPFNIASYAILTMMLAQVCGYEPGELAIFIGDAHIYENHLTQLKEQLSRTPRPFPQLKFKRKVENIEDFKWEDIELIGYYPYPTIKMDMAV
CgDHFR, sequence (Q6FPH0 1-217): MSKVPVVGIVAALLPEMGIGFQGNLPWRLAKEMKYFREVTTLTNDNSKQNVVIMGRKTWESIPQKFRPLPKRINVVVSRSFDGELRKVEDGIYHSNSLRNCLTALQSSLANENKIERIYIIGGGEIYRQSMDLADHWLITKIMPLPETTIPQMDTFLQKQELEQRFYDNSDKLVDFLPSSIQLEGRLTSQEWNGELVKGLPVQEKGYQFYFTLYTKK
hDHFR, sequence (P00374 whole entry): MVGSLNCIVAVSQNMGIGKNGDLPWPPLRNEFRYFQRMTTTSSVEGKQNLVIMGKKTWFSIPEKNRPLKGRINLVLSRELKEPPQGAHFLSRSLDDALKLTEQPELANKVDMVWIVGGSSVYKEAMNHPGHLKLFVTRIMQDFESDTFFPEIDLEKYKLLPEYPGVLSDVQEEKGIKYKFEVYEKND

CCC(c1cc(OC)c(OC)c(OC)c1)c1cnc(N)nc1N (racemic) [C7-ethyl TMP (rac), reference compound]
IC50 ([1]; read-out: IC50 against ChDHFR): 4000 nM

COc1cc(-c2c(C)cccc2C)cc(C(C)C#Cc2c(C)nc(N)nc2N)c1 (stereo not drawn) [Compound D26M, 5-[3-(5-methoxy-2′6′-dimethylbiphenyl-3-yl)but-1-yn-1-yl]-6-methylpyrimidine-2,4-diamine]
IC50 [1, 8]: 2.1 ± 0.5 nM

COc1cc(C(C)c2cnc(N)nc2N)cc(OC)c1OC (racemic) [C7-methyl TMP (rac), reference compound]
IC50 ([1]; read-out: IC50 against ChDHFR): 340000 nM

COc1cc(-c2cc(C)cc(C)c2)cc([C@@H](C)C#Cc2c(C)nc(N)nc2N)c1 [Compound 140]
IC50 against CgDHFR [2]: subnanomolar
IC50 [2, 9]: 0.55 ± 0.3 nM
IC50 ([2]; Table 11, read-out: CgDHFR IC50): 0.55 nM
MIC (Cg) ([3]; C. glabrata): 3.1 µg/mL (≈ 8.02 µM)
Antifungal activity MIC ([3]; Table 11, C. glabrata): 3 µg/mL
MIC S. aureus / MRSA [4]: 5.8 µg/mL (≈ 15 µM)
MIC MRSA ([4]; Table 6): 5.76 µg/mL (≈ 14.9 µM)
MIC S. pyogenes [5]: 0.1 µg/mL (≈ 0.259 µM)
MIC S. pyogenes ([5]; Table 6): 0.097 µg/mL (≈ 0.251 µM)
IC50 [6]: 47000 nM

COc1ccc(OC)c(CC#Cc2c(C)nc(N)nc2N)c1 [Compound 10]
IC50 ([2]; Table 3, read-out: CgDHFR IC50): 32 nM
Antifungal activity MIC [3, 10]: 56 µg/mL

COc1cc(C(C#Cc2c(C)nc(N)nc2N)OC)cc(OC)c1OC (stereo not drawn) [Compound 8, 5-[3-methoxy-3-(3,4,5-trimethoxyphenyl)prop-1-yn-1-yl]-6-methylpyrimidine-2,4-diamine]
IC50 ([2]; CgDHFR IC50, Table 3): 30 nM
Antifungal activity MIC [3, 10]: Inact

COc1cc(-c2ccccc2C)cc(C(C)C#Cc2c(C)nc(N)nc2N)c1 (stereo not drawn) [Compound D6M, 5-[3-(5-methoxy-6′-methylbiphenyl-3-yl)but-1-yn-1-yl]-6-methylpyrimidine-2,4-diamine]
IC50 [1, 8]: 2.1 ± 0.3 nM

COc1cc(C(C)C#Cc2c(C)nc(N)nc2N)cc(N2CCN(C)CC2)c1 (stereo not drawn) [Compound 158]
IC50 ([7]; Table 7): 280 ± 17 nM
Selectivity [2]: 9 ± 1
IC50 [2, 9]: 30 ± 3 nM
MIC (Cg) ([3]; C. glabrata): 95 µg/mL (≈ 250 µM)

CCc1nc(N)nc(N)c1C#CCc1cc(OC)ccc1OC [Compound 11]
IC50 ([2]; Table 3, read-out: CgDHFR IC50): 8.2 nM
IC50 ([2]; read-out: IC50 against CgDHFR): ≤ 25 nM
Antifungal activity MIC [3, 10]: 78 µg/mL

CN(Cc1cnc2nc(N)nc(N)c2n1)c1ccc(C(=O)N[C@@H](CCC(=O)O)C(=O)O)cc1 [methotrexate, (S)-2-(4-(((2,4-diaminopteridin-6-yl)methyl)methylamino)benzamido)pentanedioic acid, reference compound]
IC50 ([1]; IC50 against ChDHFR): 23 nM

COc1cc(-c2ccccc2)cc([C@H](C)C#Cc2c(C)nc(N)nc2N)c1 (single isomer, unassigned) [D (S), 5-[3-(5-methoxy-biphenyl-3-yl)but-1-yn-1-yl]-6-methylpyrimidine-2,4-diamine]
IC50 ([1]; IC50 (ChDHFR), Table 4): 30 nM

CCc1nc(N)nc(N)c1C#CC(C)c1cc(OC)cc(N2C[C@@H](C)O[C@@H](C)C2)c1 (mixture of isomers) [Compound 157]
IC50 ([7]; Table 7): 200 ± 4.5 nM
Selectivity [2]: 5.0 ± 1
IC50 [2, 9]: 38 ± 2 nM
MIC (Cg) ([3]; C. glabrata): 13 µg/mL (≈ 31.7 µM)

COc1cc(-c2c(C(C)C)cccc2C(C)C)cc(C(C)C#Cc2c(C)nc(N)nc2N)c1 (stereo not drawn) [Compound D26I, 5-[3-(5-methoxy-2′6′-diisopropylbiphenyl-3-yl)but-1-yn-1-yl]-6-methylpyrimidine-2,4-diamine]
IC50 [1, 8]: 10 nM

COc1ccc(OC)c(CC#Cc2cnc(N)nc2N)c1 [Compound 9]
IC50 ([2]; Table 3, read-out: CgDHFR IC50): 21 nM
IC50 ([2]; read-out: IC50 against CgDHFR): ≤ 25 nM
Antifungal activity MIC [3, 10]: 72 µg/mL

COc1cc(C(O)C#Cc2cnc(N)nc2N)cc(OC)c1OC (stereo not drawn) [Compound 3, 3-(2,4-diaminopyrimidin-5-yl)-1-(3,4,5-trimethoxyphenyl)prop-2-yn-1-ol]
IC50 ([2]; Table 3, read-out: CgDHFR IC50): 2700 nM
MIC ([3]; Nakaseomyces glabratus, C. glabrata, Inact: not active at 2 mM (~600 μg/mL), read-out: Antifungal activity MIC): 328 µg/mL (≈ 993 µM)

COc1cc(C(O)C#Cc2c(C)nc(N)nc2N)cc(OC)c1OC (stereo not drawn) [Compound 7, 3-(2,4-diamino-6-methylpyrimidin-5-yl)-1-(3,4,5-trimethoxyphenyl)prop-2-yn-1-ol]
IC50 ([2]; CgDHFR IC50, Table 3): 39 nM
Antifungal activity MIC [3, 10]: Inact

COc1cc(C(C)C#Cc2cnc(N)nc2N)cc(OC)c1OC (stereo not drawn) [Compound 2, 2,4-Diamino-5-(3-(3,4,5-trimethoxyphenyl)but-1-ynyl)pyrimidine]
IC50 ([2]; Table 3, read-out: CgDHFR IC50): 36 nM
Antifungal activity MIC [3, 10]: Inact

COc1cc(-c2ccccc2C)ccc1C(C)C#Cc1c(C)nc(N)nc1N (stereo not drawn) [Compound F2M, 5-[3-(3-methoxy-2′-methylbiphenyl-4-yl)but-1-yn-1-yl]-6-methylpyrimidine-2,4-diamine]
IC50 ([1]; IC50 (ChDHFR), Table 4): 36 ± 0.6 nM
Selectivity Ratio (IC50 ChDHFR/IC50 hDHFR) ([1]; Table 4): 77

COc1cc(C(C#Cc2cnc(N)nc2N)OC)cc(OC)c1OC (stereo not drawn) [Compound 4, 5-[3-methoxy-3-(3,4,5-trimethoxyphenyl)prop-1-yn-1-yl]pyrimidine-2,4-diamine]
IC50 ([2]; Table 3, read-out: CgDHFR IC50): 450 nM
Antifungal activity MIC [3, 10]: Inact

COc1cc(-c2c(C)cccc2C)ccc1C(C)C#Cc1c(C)nc(N)nc1N (stereo not drawn) [Compound F26M, 5-[3-(3-methoxy-2′6′-dimethylbiphenyl-4-yl)but-1-yn-1-yl]-6-methylpyrimidine-2,4-diamine]
Selectivity Ratio (IC50 ChDHFR/IC50 hDHFR) ([1]; Table 4): 455
IC50 [1, 8]: 7.4 ± 1.9 nM
IC50 ([7]; Table 4): 3370 ± 15 nM
